system: Fc region (Jackson ImmunoResearch Laboratories, Inc.) labeled with horseradish peroxidase (HRP); assay: ELISA of recombinant phages displaying polypeptides (Example 2, 6); assay type: binding, human; details: recombinant T7 phage displaying the polypeptide; absorbance at 415 nm; control 0.098
Procedure: 6) In this section, it will be stated as an example that the binding activity of recombinant phages transformed by nucleic acids encoding amino acid sequences represented by SEQ ID NOs: 26, 27, 30 to 55, 57, 63 to 72 and 79 to 81 was measured by Enzyme Linked Immuno-Sorbent Assay (ELISA).
DNA molecules encoding amino acid sequences of SEQ ID NOs: 26, 27, 30 to 55, 57, 63 to 72 and 79 to 81 were amplified by a polymerase chain reaction (PCR) using KOD DNA polymerase (TOYOBO) under the reaction conditions according to the accompanying manual. Each of the amplified DNA was digested with restriction enzymes EcoRI and HindIII, and ligated to the 3′ terminal of g10 gene on T7 phage genomic DNA. Ligation to T7 phage genomic DNA was performed by use of a sample attached to T7Select10-3 Cloning Kit (Novagen) under the reaction conditions and in accordance with the procedure described in T7Select (registered trade mark) System Manual. Using T7 phage genomic DNA ligated, T7 phage was packaged in a test tube by T7Select Packaging Kit (Novagen) under the reaction conditions in accordance with T7Select (registered trade mark) System Manual (Novagen). Subsequently, phage plaque was formed in accordance with T7Select (registered trade mark) System Manual (Novagen). From each of the plaques, a recombinant phage displaying the polypeptide was isolated. To MICROTEST (registered trade mark) 96 (BECTON, DICKINSON AND COMPANY), a culture solution (0.2 mL) of Escherichia coli BL5403 strain cultured in LB medium until O.D.600 reached 1.0 was poured to infect with the Escherichia coli cells each of the recombinant phages isolated from plaques and allowed to stand still 37° C. for 12 hours to proliferate phages. The culture solution (10 μL) containing these phages was diluted in 90 μL of TBS buffer (50 mM Tris-HCl, 150 mM NaCl, pH 7.4) to prepare measurement samples.
The measurement samples were poured to MEDISORP 96 well microplate (Nunc) and allowed to stand still for one hour to allow the phage to physically adsorb to the plate. The supernatant was removed and SuperBlock (registered trade mark) T20 (TBS) Blocking Buffer (Thermo […]) (150 μL) was poured to the plate and allowed to stand still for one hour to block the surface of the plate. The plate was washed three times with TBS-T buffer (50 mM Tris-HCl, 150 mM NaCl, 0.1% Tween 20 (registered trade mark), pH 7.4). To the plate, TBS-T buffer (100 μL) containing an Fc region (Jackson ImmunoResearch Laboratories, Inc.) (0.2 μg/mL) labeled with horseradish peroxidase (HRP) was added and allowed to stand still for one hour. After the plate was washed three times with TBS-T buffer, ABTS One Component HRP Microwell Substrate (BioFX) (100 μL) was poured to the plate. The binding activity was detected through a […]. The absorbance at 415 nm (O.D.415) was measured by a microplate absorbance reader Sunrise R (TECAN GROUP LTD.). TBS-T buffer containing no phages was used as a negative control in a control experiment.
ELISA results of the recombinant phages displaying polypeptides containing amino acid sequences represented by SEQ ID NOs: 26, 27 and 30 to 55 and the recombinant phages displaying polypeptides containing amino acid sequences represented by SEQ ID NOs: 57, 63 to 72 and 79 to 81 are shown in Table 5A and Table 5B, respectively.

Substance | O.D. 415
57 (GPGISAFSPGRGVYDPETGTWYDAAWHLGELVWATYYDPETGTWEPDWQRMLGQ; IgG binding peptide, p17) [compound 57] | 0.229
63 (SNFVRSPSAWYDPETGTWYDAAWHLGELVWATYYDPETGTWEPDWQRMLGQ; IgG binding peptide, p2_2) [compound 63] | 0.272
64 (IPYGFPGRGEYDPETGTWYDAAWHLGELVWATYYDPETGTWEPDWQRMLGQ; IgG binding peptide, p4) [compound 64] | 0.213
65 (GPYNIPDSAVYDPETGTWYDAAWHLGELVWATYYDPETGTWEPDWQRMLGQ; IgG binding peptide, p5) [compound 65] | 0.291
66 (WPLNAPSSAFYDPETGTWYDAAWHLGELVWATYYDPETGTWEPDWQRMLGQ; IgG binding peptide, p13) [compound 66] | 0.182
67 (VPPRFSSSAQYDPETGTWYDAAWHLGELVWATYYDPETGTWEPDWQRMLGQ; IgG binding peptide, p14) [compound 67] | 0.25
68 (FLVGLHAGAVYDPETGTWYDAAWHLGELVWATYYDPETGTWEPDWQRMLGQ; IgG binding peptide, p15_2) [compound 68] | 0.186
69 (VVRVDHSSAVYDPETGTWYDAAWHLGELVWATYYDPETGTWEPDWQRMLGQ; IgG binding peptide, p20) [compound 69] | 0.201
70 (WMEFYPGRGVYDPETGTWYDAAWHLGELVWATYYDPETGTWEPDWQRMLGQ; IgG binding peptide, p26) [compound 70] | 0.189
71 (DGVGPGSRGVYDPETGTWYDAAWHLGELVWATYYDPETGTWEPDWQRMLGQ; IgG binding peptide, p27) [compound 71] | 0.219
72 (FVSSLPNSAMYDPETGTWYDAAWHLGELVWATYYDPETGTWEPDWQRMLGQ; IgG binding peptide, p28) [compound 72] | 0.229
79 (GSCKFSSSCHYDPETGTWYDAAWHLGELVWATYYDPETGTWEPDWQRMLGQ; IgG binding peptide, p24_2) [compound 79] | 0.329
80 (LIPPGGISPWYDPETGTWYDAAWHLGELVWATYYDPETGTWEPDWQRMLGQ; IgG binding peptide, p25_2) [compound 80] | 0.215
81 (LNDFLTPTAWYDPETGTWYDAAWHLGELVWATYYDPETGTWLPDWQTMAQK; IgG binding peptide, p31) [compound 81] | 0.235

same assay, conditions: recombinant T7 phage displaying the polypeptide; absorbance at 415 nm; control 0.11

Substance | O.D. 415
55 (EAWHLGELVWATYYDPETGTWRPDWSRMSGR; IgG binding peptide, pep11_2) [compound 55] | 0.252

system: Fc region (Jackson ImmunoResearch Laboratories, Inc.) labeled with horseradish peroxidase (HRP); assay: ELISA of recombinant phages displaying polypeptides (Example 1, 6); assay type: binding, human; details: recombinant T7 phage displaying the polypeptide; absorbance at 415 nm; control 0.08
Procedure: 6) In this section, it will be stated as an example that the binding activity of recombinant phages transformed by nucleic acids encoding the amino acid sequences represented by SEQ ID NOs: 2 to 9 and 11 to 19 was measured by Enzyme Linked Immuno-Sorbent Assay (ELISA).
DNA molecules encoding the amino acid sequences of SEQ ID NOs: 2 to 9 and 11 to 19 were amplified by a polymerase chain reaction (PCR). PCR was carried out using KOD DNA polymerase (TOYOBO) under reaction conditions according to the accompanying manual. The amplified DNA molecules were each digested with restriction enzymes EcoRI and HindIII and ligated to 3′ terminal of g10 gene on T7 phage genomic DNA. Ligation to T7 phage genomic DNA was performed by use of a sample attached to T7Select10-3 Cloning Kit (Novagen) under the reaction conditions and in accordance with the procedure described in the accompanying T7Select (registered trade mark) System Manual. Using T7 phage genomic DNA ligated, T7 phage was packaged in a test tube by T7Select Packaging Kit (Novagen) under the reaction conditions in accordance with T7Select (registered trade mark) System Manual (Novagen). Subsequently, phage plaques were formed in accordance with T7Select (registered trade mark) System Manual (Novagen). From each of the plaques, a recombinant phage displaying the polypeptide was isolated. To MICROTEST (registered trade mark) 96 (BECTON, DICKINSON AND COMPANY), a culture solution (0.2 mL) of Escherichia coli BL5403 strain cultured in LB medium until O.D.600 reached 1.0 was poured to infect with the Escherichia coli cells each of the recombinant phages isolated from plaques and allowed to stand still at 37° C. for 12 hours to proliferate phages. The culture solution (10 μL) containing these phages was diluted in 90 μL of TBS buffer (50 mM Tris-HCl, 150 mM NaCl, pH 7.4) to prepare measurement samples.
The measurement samples were poured to MEDISORP 96 well microplate (Nunc) and allowed to stand still for one hour to allow the phage to physically adsorb to the plate. After the supernatant was removed, SuperBlock (registered trade mark) T20 (TBS) Blocking Buffer (Thermo […]) (150 μL) was poured to the plate and allowed to stand still for one hour to block the surface of the plate. The plate was washed three times with TBS-T buffer (50 mM Tris-HCl, 150 mM NaCl, 0.1% Tween 20 (registered trade mark), pH 7.4). To the plate, TBS-T buffer (100 μL) containing an Fc region (Jackson ImmunoResearch Laboratories, Inc.) (0.2 μg/mL) labeled with horseradish peroxidase (HRP) was added and allowed to stand still for one hour. After the plate was washed three times with TBS-T buffer, ABTS One Component HRP Microwell Substrate (BioFX) (100 μL) was poured to the plate. Binding activity was detected through a color reaction. The absorbance at 415 nm (O.D.415) was measured by a microplate absorbance reader Sunrise R (TECAN GROUP LTD.). TBS-T buffer containing no phages was used as a negative control in a control experiment.
ELISA results of the recombinant phages displaying polypeptides containing amino acid sequences represented by SEQ ID NOs: 2 to 9 and the recombinant phages displaying polypeptides containing amino acid sequences represented by SEQ ID NOs: 11 to 19 are shown in Table 2A and Table 2B, respectively.

Substance | O.D. 415
3 (YDPGTGTWRSYLRFGGG; IgG binding peptide, H3) [compound 3] | 0.278
4 (YDPYTGTWRSSIWVLSG; IgG binding peptide, D5) [compound 4] | 0.165
5 (YDPGTGTWRSWLSFNVG; IgG binding peptide, E7) [compound 5] | 0.155
6 (YDPWTGTWRSFIWGGGG; IgG binding peptide, sC12) [compound 6] | 0.149
7 (YDPRTGTWLLYASRLLG; IgG binding peptide, G3) [compound 7] | 0.214
8 (YDPVTGTWTSSIASWMG; IgG binding peptide, G11) [compound 8] | 0.223
9 (YDPRTGTWRRSSLSYSG; IgG binding peptide, sA7) [compound 9] | 0.193

same assay, conditions: recombinant T7 phage displaying the polypeptide; absorbance at 415 nm; control 0.101

Substance | O.D. 415
12 (AGSRRAHGYDPRTGTWRSSIAYGGG; IgG binding peptide, 2A4) [compound 12] | 0.267
14 (SWRRRGSSYDPRTGTWRSSIAYGGG; IgG binding peptide, 2H1) [compound 14] | 0.282
15 (TGRGRSARYDPRTGTWRSSIAYGGG; IgG binding peptide, 2F2) [compound 15] | 0.396
16 (HWVNGRSGYDPRTGTWRSSIAYGGG; IgG binding peptide, 2F4) [compound 16] | 0.373
18 (GSVVRWRGYDPRTGTWRSSIAYGGG; IgG binding peptide, 2F7) [compound 18] | 0.36
19 (GAVYRRSFYDPRTGTWRSSIAYRGG; IgG binding peptide, 2F9) [compound 19] | 0.353

Source: US9605029B2, “Antibody-binding peptide” (NATIONAL INSTITUTE OF ADVANCED INDUSTRIAL SCIENCE AND …, priority 2013, dated 2017)
